Values quoted from earlier work as cited in patent US20230056788A1, “METHODS AND COMPOSITIONS FOR THE INHIBITION OF HEPATITIS B AND HEPATITIS D VIRUS INFECTIONS” (priority 2020, published 2023).
In the oligonucleotide strings, read from the 5' end, every base follows the letter of its sugar. An asterisk marks phosphorothioate; unmarked linkages are phosphodiester. Other units and linkages are bracketed, terminal groups are in braces. A string of capitals states the bases alone. [5mC] = 5-methylcytosine; m = 2'-O-methyl

What was measured:
HBV [1] = system: HBV
HBV [2] = settings: HBeAg positive and negative chronic infection and HBV/HDV co-infection

In the case of “(2′OMeA, 2′OMe-5-MeC)10 (mA*m[5mC]*mA*m[5mC]*mA*m[5mC]*mA*m[5mC]*mA*m[5mC]*mA*m[5mC]*mA*m[5mC]*mA*m[5mC]*mA*m[5mC]*mA*m[5mC]; further chemistry not fully specified) [REP 2179, phosphorothioate 20mer counterpart of REP 2139]”, the antiviral activity (HBV [1]) is given as “(hydrophobic, inactive”.

For “(2′OMeA, 2′OMe-5-MeC)20 (mA*m[5mC]*mA*m[5mC]*mA*m[5mC]*mA*m[5mC]*mA*m[5mC]*mA*m[5mC]*mA*m[5mC]*mA*m[5mC]*mA*m[5mC]*mA*m[5mC]*mA*m[5mC]*mA*m[5mC]*mA*m[5mC]*mA*m[5mC]*mA*m[5mC]*mA*m[5mC]*mA*m[5mC]*mA*m[5mC]*mA*m[5mC]*mA*m[5mC]; further chemistry not fully specified) [REP 2139]”, the “activity against infections with multiple HBV genotypes” value (HBV [2]) is given as “potently active”.

In the case of “(2′OMeA, 2′OMe-5-MeC)20 (mAm[5mC]mAm[5mC]mAm[5mC]mAm[5mC]mAm[5mC]mAm[5mC]mAm[5mC]mAm[5mC]mAm[5mC]mAm[5mC]mAm[5mC]mAm[5mC]mAm[5mC]mAm[5mC]mAm[5mC]mAm[5mC]mAm[5mC]mAm[5mC]mAm[5mC]mAm[5mC]; further chemistry not fully specified) [REP 2147, non phosphorothioated (phosphodiester) counterpart of REP 2139]”, the antiviral activity (HBV [1]) is given as “inactive”.
